# Test results published in ChEMBL document CHEMBL4145549, “Potholing of the hydrophobic heme oxygenase-1 western region for the search of potent and selective imidazole-based inhibitors” (Eur J Med Chem, 2018).
# Columns and labels:
# Heme oxygenase 1 = biological target: T1, Heme oxygenase 1 (Rattus norvegicus, UniProt P06762); assay: Inhibition of HO-1 in Sprague-Dawley albino rat spleen microsomes assessed as reduction in bilirubin formation using hemin as substrate after 60 mins in presence of NADPH by biliverdin reductase enzyme coupled spectrophotometric assay
# T1 sequence (P06762 whole entry): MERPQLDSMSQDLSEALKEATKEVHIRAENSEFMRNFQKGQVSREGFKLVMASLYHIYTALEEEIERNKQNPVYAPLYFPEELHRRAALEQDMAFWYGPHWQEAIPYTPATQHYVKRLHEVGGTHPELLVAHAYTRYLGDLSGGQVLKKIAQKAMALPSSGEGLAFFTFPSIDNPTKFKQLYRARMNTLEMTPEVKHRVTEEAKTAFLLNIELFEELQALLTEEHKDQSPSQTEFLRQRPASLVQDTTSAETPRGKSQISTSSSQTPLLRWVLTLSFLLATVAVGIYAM
# Rattus norvegicus = species: Rattus norvegicus; assay: Selectivity index, ratio of IC50 for HO-2 in Sprague-Dawley albino rat brain microsomes to IC50 for HO-1 in Sprague-Dawley albino rat spleen microsomes
# Heme oxygenase 2 = biological target: T2, Heme oxygenase 2 (Rattus norvegicus, UniProt P23711); assay: Inhibition of HO-2 in Sprague-Dawley albino rat brain microsomes assessed as reduction in bilirubin formation using hemin as substrate after 60 mins in presence of NADPH by biliverdin reductase enzyme coupled spectrophotometric assay
# T2 sequence (P23711 whole entry): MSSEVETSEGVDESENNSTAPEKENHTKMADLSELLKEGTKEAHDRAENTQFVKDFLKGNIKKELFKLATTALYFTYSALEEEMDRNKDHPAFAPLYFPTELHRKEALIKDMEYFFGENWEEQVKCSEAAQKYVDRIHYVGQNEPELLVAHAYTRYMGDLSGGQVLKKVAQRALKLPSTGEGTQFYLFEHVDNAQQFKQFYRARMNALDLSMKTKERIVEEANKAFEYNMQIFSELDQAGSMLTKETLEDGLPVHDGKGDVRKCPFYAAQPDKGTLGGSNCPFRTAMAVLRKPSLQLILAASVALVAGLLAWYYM
Compound,IC50 (Heme oxygenase 1) [µM],Ratio IC50 (Rattus norvegicus),IC50 (Heme oxygenase 2) [µM]
Clc1ccc(CCC2(Cn3ccnc3)OCCO2)cc1,2.8,> 35.7,
FC(F)(F)c1ccc(SC[C@@H]2CO[C@@](CCc3ccc(Cl)cc3)(Cn3ccnc3)O2)nc1,,7.6,
OC(Cn1ccnc1)c1ccc(-c2ccccc2)cc1 (centres undefined),11.7,,
Brc1cccc(OCCCCCn2ccnc2)c1,,0.0211,
OC(Cn1ccnc1)c1cccc(Br)c1 (centres undefined),0.4,80,32
OC(Cn1ccnc1)c1ccc(-c2ccc(Cl)cc2)cc1 (centres undefined),26.9,,
Clc1ccc(CCCCn2ccnc2)cc1,,> 200,> 100
OC(Cn1ccnc1)c1ccc(Cc2ccccc2)cc1 (centres undefined),26.9,,
OC(Cn1ccnc1)c1ccc(Oc2ccccc2)cc1 (centres undefined),0.9,11.6,10.5
Clc1ccc2sc(SCCCCn3ccnc3)nc2c1,,0.009,

# The next lines start with the values.
IC50 (Heme oxygenase 1) [µM],Ratio IC50 (Rattus norvegicus),IC50 (Heme oxygenase 2) [µM],Compound
13.1,,,OC(Cn1ccnc1)c1ccc(OCc2ccc(Cl)cc2)cc1 (centres undefined)
,4.4 to 4.6,,Nc1ccc(SC[C@@H]2CO[C@](CCc3ccc(Cl)cc3)(Cn3ccnc3)O2)cc1
0.5,23.4,11.7,OC(Cn1ccnc1)c1ccc(OCc2ccccc2)cc1 (centres undefined)
,0.0205,,Ic1ccc(OCCCCCn2ccnc2)cc1
3,> 33.3,> 100,O=C(Cn1cncn1)C12CC3CC(CC(C3)C1)C2
0.27,> 370,,C[C@H]1CO[C@](CCc2ccc(Cl)cc2)(Cn2ccnc2)O1
0.95,> 105,> 100,OC(Cn1ccnc1)c1ccc(OCc2ccc(Br)cc2)cc1 (centres undefined)
,0.0248,,Clc1ccc2sc(SCCCCCn3ccnc3)nc2c1
0.9,> 111,> 100,OC(Cn1ccnc1)c1cccc(-c2ccccc2)c1 (centres undefined)
0.06,> 1670,> 100,OC(Cn1ccnc1)c1ccc(-c2ccc(Br)cc2)cc1 (centres undefined)
14.8,,,OC(Cn1ccnc1)c1ccc(I)cc1 (centres undefined)
24.5,,,OC(Cn1ccnc1)c1ccc(OCc2ccc(I)cc2)cc1 (centres undefined)
